Assay results: BindingDB's records for doi:10.1016/0960-894X(95)00530-0 (1995)

Biological target: Gastrin/cholecystokinin type B receptor (Cavia porcellus)
Assay: Displacement of [125I]-BH CCK-8S from Cholecystokinin type B receptor in guinea pig cortex

Cc1cccc(NC(=O)NC2N=C(N3CCNCC3)c3ccccc3N(C)C2=O)c1 (centres undefined) [1-(1-Methyl-2-oxo-5-piperazin-1-yl-2,3-dihydro-1H-benzo[e][1,4]diazepin-3-yl)-3-m-tolyl-urea]
IC50: 880 nM

Cc1cccc(NC(=O)N[C@@H]2N=C(c3ccccc3)c3ccccc3N3C[C@H](C)N=C23)c1 [1-((2S,4R)-2-Methyl-6-phenyl-2,4-dihydro-1H-3,5,10b-triaza-benzo[e]azulen-4-yl)-3-m-tolyl-urea]
IC50: 1.8 nM

CCCN1C(=O)C(NC(=O)Nc2cccc(C(F)(F)F)c2)N=C(N2CCN(C)CC2)c2ccccc21 (centres undefined) [1-[5-(4-Methyl-piperazin-1-yl)-2-oxo-1-propyl-2,3-dihydro-1H-benzo[e][1,4]diazepin-3-yl]-3-(3-trifluoromethyl-phenyl)-urea]
IC50: 12 nM

Cc1cccc(NC(=O)NC2N=C(N3CCN(C(=O)OC(C)(C)C)CC3)c3ccccc3N(C)C2=O)c1 (centres undefined) [4-[1-Methyl-2-oxo-3-(3-m-tolyl-ureido)-2,3-dihydro-1H-benzo[e][1,4]diazepin-5-yl]-piperazine-1-carboxylic acid tert-butyl ester]
IC50: > 3000 nM
